Key:
[1] = tested on: ERK1/2^T202/Y204 and MEK1/2^S217/S221 phosphorylation; test: Western blot of MAP kinase pathway phosphorylation in A375 cells; type: cell-based; conditions: for block of A77 1726-induced ERK1/2 and MEK1/2 phosphorylation: A375 cells pre-treated with inhibitor 1 hr, then A77 1726 100 μM 2 hr; for effect on ERK1/2 and MEK phosphorylation, inhibitor alone: A375 cells, PLX 4720 1 μM, rapamycin 20 nM, PPP 1 μM
Method: (§1) A375 cells seeded in a 6-well plate were starved in DMEM medium containing 0.5% FBS for 2 hr and treated with the indicated concentration of A77 1726 or PLX 4720 (1 μM) for another 2 hr (A) or treated with A77 1726 (100 μM) for the indicated time (B & C). Cells were harvested and analyzed for protein phosphorylation by specific antibodies as indicated. Protein loading was monitored by stripping membrane and re-probing with antibodies against non-phosphorylated proteins. […] A375 cells seeded in a 6-well plate were starved in DMEM medium containing 05% FBS for 2 hr and treated with the indicated concentration of A77 1726 in the absence or presence of uridine (200 μM). Phosphorylated and total proteins were analyzed by Western blot as described above.
(§2) A375 cells seeded in 6-well plates were starved in DMEM medium containing 0.5% FBS for 2 hr and then pre-treated with vehicle (0.1% dimethyl sulfoxide), LY294002 (10 μM) (A), PPP (1 μM) (B), or the inhibitors of the MAP kinase pathway (PLX4720, 1 μM; U0126, 10 μM; PD98059, 10 μM) (C) for 1 hr. Cells were then treated with A77 1726 (100 μM) or rapamycin (20 nM) as indicated for 2 hr. Cells were harvested and analyzed for protein phosphorylation by specific antibodies as indicated. Protein loading was monitored by stripping membrane and re-probing with antibodies against non-phosphorylated proteins.
(§3) Cells grown in 6-well plates were harvested and lysed in NP-40 lysis buffer (50 mM Tris-HCI (pH 8.0), 150 mM NaCl, 1% NP-40, 5 mM EDTA, 10 μg/ml aprotinin, 10 μg/ml leupeptin, and 1 mM phenylmethylsulfonyl fluoride). After incubation on ice for 30 min, the cell lysates were prepared by spinning down at 4° C., 15,000 rpm for 15 min. After electrophoresis and transfer to Immobolin membrane, proteins of interest were probed with their specific antibodies, followed by horseradish peroxidase-conjugated goat anti-rabbit IgG and SuperSignal Western Pico enhanced chemiluminoscence substrate (Pierce Chemical Co., Rockford, Ill.).
(§4) The PI-3 and MAP kinase pathways play an important role in cell proliferation, differentiation, and cell cycle progress. Multiple genes in these two pathways are frequently mutated and have a commanding role in driving tumorigenesis and tumor cell proliferation (2; 3). […] Here we tested whether A77 1726 affected the activation of MAP and PI-3 kinase pathways. A375 cells grown in 6-well plates were starved in the media containing 0.5% FBS for 2 hr and then treated with the indicated concentration of A77 1726. […] We next explored the effect of A77 1726 in phosphorylation of the molecules in the PI-3 kinase pathway.

[2] = tested on: AKT^S473 and S6K1^T389 phosphorylation; test: Western blot of PI-3 kinase pathway phosphorylation in A375 cells; type: cell-based; conditions: for effect on AKT^S473 phosphorylation in A77 1726-treated cells: A375 cells, MAP kinase pathway inhibitor plus A77 1726
Method: as §1, §2, §3, §4

A375 cells [3] = test: Cell cycle analysis (propidium iodine, flow cytometer); type: cell-based; conditions: for effect on cell cycle, inhibitor alone: PLX4720 1 μM, U0126 10 μM, PD98059 10 μM, rapamycin 20 nM, LY294002 10 μM
Method: (A) Ability of uridine to relieve the cell cycle arrest in the S phase. A375 cells grown in 6-well plates were treated with the indicated concentration of A771726 with or without uridine (200 μM) for 24 hr. Cell cycle was analyzed in a flow cytometer as described in Materials and Methods. (B) Effect of the MAP kinase pathway inhibitors on A77 1726-mediated cell cycle arrest in the S phase. A375 cells were treated with A771726 (100 μM) in the absence or presence of 0.1% DMSO, […] (1 μM), U0126 (10 μM), PD98059 (10 for 24 hr. Single cell suspensions were prepared and analyzed for cell cycle in a flow cytometer. (C) Effect of the PI-3 kinase pathway inhibitors and their effect on A77 1726-mediated cell cycle arrest. A375 cells were treated with A77 1726 (100 μM), rapamycin (20 nM), and/or LY294002 (10 μM). After incubation for 24 hr, cells were harvested and analyzed for cell cycle progress.
(§5) Cells were grown in complete RPMI1640 medium with 10% fetal bovine serum in 6-well plates. Upon 60% confluence, the cells were treated with vehicle or with indicated concentrations of A77 1726 or various inhibitors as indicated for 24 hr. Cells were pulsed with 10 μM BrdU for 2 hr. Cells were harvested, denatured with 2N HCl for 5 min at room temperature followed by neutralization with 0.1M borate buffer (pH 8.5). After washing and blocking with normal mouse serum, the cells were stained with an Alexa Fluor 488-conjugated anti-BrdU monoclonal antibody (BD Bioscience), followed by analysis in a flow cytometer. Alexa Fluor 488-conjugated mouse IgG was included as a control. For cell cycle analysis, the cells were harvested and fixed with 2 ml cold 70% ethanol in PBS overnight at 4° C. Fixed cells were then washed 3 times with PBS, treated with RNaseA (100 μg/ml in 0.5 ml PBS). After incubation at room temperature for 30 min, cells were stained with 2.5 μl propidium iodine (10 mg/ml.) and immediately analyzed for DNA content in a flow cytometer.

A375 cells [4] = test: BrdU incorporation (DNA replication), flow cytometry; type: cell-based; conditions: for block of A77 1726-induced BrdU incorporation / DNA synthesis: A77 1726 100 μM plus inhibitor; for effect on DNA replication (BrdU labeling), inhibitor alone: PLX4720 1 μM, U0126 10 μM, rapamycin 20 nM, LY294002 10 μM
Method: (A) The effect of uridine to A77 1726-induced DNA synthesis. A375 cells were treated with the indicated concentration of A771726 in the absence or presence of uridine (200 μM) for 22 hr. After pulsing with BrdU (10 µM) for 2 hr, cells were harvested and analyzed for BrdU incorporation by staining with an Alexa Fluor-488-conjugated anti-BrdU monoclonal antibody followed by flow cytometry. (B) Effect of the MAP kinase pathway inhibitors to A77 1726-stimulated BrdU incorporation. A375 cells were treated with A77 1726 (100 μM) in the presence of 0.1% DMSO, PLX4720 (1 μM), U0126 (10 µM), PD98059 (10 μM). After incubation for 22 hr the cells were pulsed with BrdU for 2 hr. Single cell suspensions were stained for BrdU incorporation and analyzed for cell cycle in a flow cytometer as described in (A). (C) Effect of the PI-3 kinase pathway inhibitors and their effect on A77 1726-stimualted BrdU incorpration. A375 cells were treated with A771726 (100 μM), rapamycin (20 nM), and/or […] (10 μM). After incubation for 22 hr, cells were pulsed with BrdU for 2 hr, harvested and analyzed for BrdU labeling in a flow cytometer.
as §5

A375 cells [5] = test: Cell proliferation assay (ATP-based Cell-Glo)
Method: A375 cells were seeded in 96-well plates (2000 cells/well) and incubated the indicated concentrations of A77 1726 for 72 hr in the absence or presence of various concentrations PLX4720 (A, C) with or without uridine (200 μM) (B, D). Cell proliferation was analyzed by an ATP-based Cell-Glo assay. One representative of three experiments with similar results was shown. *p<0.01.
A375 cells were grown in complete RPMI 1640 medium supplemented with 10% fetal bovine serum. The cells were seeded in 96-well plates at the density of 2,000/well in the absence or presence of various concentrations of A77 1726, PLX4720, or uridine (200 μM). After incubation for 72 hr, cell proliferation was monitored by using an ATP-based Cell-Glo assay (Promegan, Madison, Wis.) following the manufacturer's instruction.

[6] = tested on: ribosomal protein S6^S235/S236 phosphorylation; test: Western blot of S6 phosphorylation in A375 cells; type: cell-based; conditions: A375 cells; A77 1726 dose-dependent or 100 μM, rapamycin 20 nM, PPP 1 μM
Method: as §1, §2, §3, §4

| SMILES | block of A77 1726-induced ERK1/2 and MEK1/2 phosphorylation [1] | effect on AKT^S473 phosphorylation in A77 1726-treated cells [2] | effect on cell cycle, inhibitor alone (A375 cells [3]; A375 cells, 24 hr) | block of A77 1726-induced BrdU incorporation / DNA synthesis (A375 cells [4]) | effect on ERK1/2 and MEK phosphorylation, inhibitor alone [1] | effect on DNA replication (BrdU labeling), inhibitor alone (A375 cells [4]) | further results |
| --- | --- | --- | --- | --- | --- | --- | --- |
| CNC(=O)c1cc(Oc2ccc(NC(=O)Nc3ccc(Cl)c(C(F)(F)F)c3)cc2)ccn1 [BAY 43-9006] | able to block | further increase | – | – | – | – | – |
| COc1cccc(-c2cc(=O)c3ccccc3o2)c1N [PD98059] | unable to block | further increase | arrest of the cell cycle in G1 phase | partially blocked | – | – | – |
| CCCS(=O)(=O)Nc1ccc(F)c(C(=O)c2c[nH]c3ncc(Cl)cc23)c1F [PLX4720] | able to block | further increase | arrest of the cell cycle in G1 phase | able to block | inhibited | completely block DNA replication | effect on A375 cell proliferation (A375 cells [5]; PLX4720 100 or 500 nM by itself): inhibited; effect on A375 cell proliferation (A375 cells [5]; PLX4720 at 1 nM by itself): had no effect; effect on A375 cell proliferation in combination with A77 1726 (A375 cells [5]; in the absence or presence of uridine): additive effect |
| COc1cc([C@@H]2c3cc4c(cc3[C@H](O)[C@H]3COC(=O)[C@@H]23)OCO4)cc(OC)c1OC [PPP] | abrogated | – | – | – | had no effect | – | effect on S6^S235/S236 phosphorylation [6]: had no effect; block of A77 1726- and rapamycin-induced AKT phosphorylation ([2]; A375 cells pre-treated with LY294002 10 μM or PPP 1 μM): largely blocked |
| N#CC(=C(/N)Sc1ccccc1N)/C(C#N)=C(\N)Sc1ccccc1N [U0126] | able to block | further increase | arrest of the cell cycle in G1 phase | able to block | – | completely block DNA replication | – |
| O=c1ccn([C@@H]2O[C@H](CO)[C@@H](O)[C@H]2O)c(=O)[nH]1 [Uridine, uridine] | – | – | – | – | – | – | effect on cell cycle of A77 1726-treated cells (A375 cells [3]; A375 cells treated with A77 1726 at three concentrations plus uridine): almost normalize cell cycle; effect on cell cycle arrest, uridine alone (A375 cells [3]; A375 cells, uridine 200 μM, 24 hr): little effect |
